# Test results taken from patent US11912703B2, “6-azaindole compounds” (BRISTOL-MYERS SQUIBB COMPANY, priority 2017, dated 2024).
# Read-outs that look alike come from different tables or passages of the source.
# Key:
# [1] = molecular target: human TLR7 (Homo sapiens (Human), UniProt Q9NYK1); test: TLR7 inhibition reporter assay (HEK-Blue SEAP); type: cell-based; conditions: HEK-Blue cells overexpressing human TLR7, gardiquimod 7.5 μM stimulation
# [2] = molecular target: human TLR8 (Homo sapiens (Human), UniProt Q9NR97); test: TLR8 inhibition reporter assay (HEK-Blue SEAP);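 also: SEAP driven by IFN-β minimal promoter with five NF-κB and AP-1 sites, compounds tested 0.05 nM to 50 µM, 22 h incubation, inhibition relative to agonist plus DMSO wells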
# human TLR8, sequence (Q9NR97 27-1041): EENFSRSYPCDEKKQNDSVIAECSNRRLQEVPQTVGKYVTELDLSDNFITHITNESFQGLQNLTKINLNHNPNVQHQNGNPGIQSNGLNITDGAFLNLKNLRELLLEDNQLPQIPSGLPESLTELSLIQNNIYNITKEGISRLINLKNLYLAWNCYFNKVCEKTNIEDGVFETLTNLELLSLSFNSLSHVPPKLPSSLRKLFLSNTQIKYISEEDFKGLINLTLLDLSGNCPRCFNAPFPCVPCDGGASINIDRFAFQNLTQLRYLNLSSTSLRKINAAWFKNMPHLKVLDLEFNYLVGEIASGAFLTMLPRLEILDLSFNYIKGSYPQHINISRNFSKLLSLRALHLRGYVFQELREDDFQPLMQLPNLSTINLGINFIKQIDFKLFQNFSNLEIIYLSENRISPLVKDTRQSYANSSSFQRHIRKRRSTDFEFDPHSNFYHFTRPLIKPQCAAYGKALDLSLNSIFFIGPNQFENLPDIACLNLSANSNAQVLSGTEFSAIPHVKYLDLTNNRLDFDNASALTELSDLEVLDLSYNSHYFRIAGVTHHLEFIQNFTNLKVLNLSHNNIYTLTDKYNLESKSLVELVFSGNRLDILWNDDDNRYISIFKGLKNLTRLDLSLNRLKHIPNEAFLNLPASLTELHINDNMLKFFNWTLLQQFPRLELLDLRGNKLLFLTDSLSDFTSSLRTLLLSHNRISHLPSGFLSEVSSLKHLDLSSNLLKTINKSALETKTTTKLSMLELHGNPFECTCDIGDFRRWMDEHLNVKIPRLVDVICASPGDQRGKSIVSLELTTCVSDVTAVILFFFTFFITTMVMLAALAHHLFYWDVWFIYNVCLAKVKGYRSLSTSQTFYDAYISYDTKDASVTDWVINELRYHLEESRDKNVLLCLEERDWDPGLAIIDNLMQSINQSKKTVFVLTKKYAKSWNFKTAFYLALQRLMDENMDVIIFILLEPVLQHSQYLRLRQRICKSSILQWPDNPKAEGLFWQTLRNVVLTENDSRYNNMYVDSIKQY
# [3] = molecular target: human TLR9 (Homo sapiens (Human), UniProt Q9NR96); test: TLR9 inhibition reporter assay (HEK-Blue SEAP);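 also: SEAP driven by IFN-β minimal promoter carrying five NF-κB and AP-1 sites, 22 h at 37 °C, compounds 0.05 nM–50 µM, inhibition scaled between agonist-plus-DMSO and reference-inhibitor wells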
# human TLR9, sequence (Q9NR96 26-1032): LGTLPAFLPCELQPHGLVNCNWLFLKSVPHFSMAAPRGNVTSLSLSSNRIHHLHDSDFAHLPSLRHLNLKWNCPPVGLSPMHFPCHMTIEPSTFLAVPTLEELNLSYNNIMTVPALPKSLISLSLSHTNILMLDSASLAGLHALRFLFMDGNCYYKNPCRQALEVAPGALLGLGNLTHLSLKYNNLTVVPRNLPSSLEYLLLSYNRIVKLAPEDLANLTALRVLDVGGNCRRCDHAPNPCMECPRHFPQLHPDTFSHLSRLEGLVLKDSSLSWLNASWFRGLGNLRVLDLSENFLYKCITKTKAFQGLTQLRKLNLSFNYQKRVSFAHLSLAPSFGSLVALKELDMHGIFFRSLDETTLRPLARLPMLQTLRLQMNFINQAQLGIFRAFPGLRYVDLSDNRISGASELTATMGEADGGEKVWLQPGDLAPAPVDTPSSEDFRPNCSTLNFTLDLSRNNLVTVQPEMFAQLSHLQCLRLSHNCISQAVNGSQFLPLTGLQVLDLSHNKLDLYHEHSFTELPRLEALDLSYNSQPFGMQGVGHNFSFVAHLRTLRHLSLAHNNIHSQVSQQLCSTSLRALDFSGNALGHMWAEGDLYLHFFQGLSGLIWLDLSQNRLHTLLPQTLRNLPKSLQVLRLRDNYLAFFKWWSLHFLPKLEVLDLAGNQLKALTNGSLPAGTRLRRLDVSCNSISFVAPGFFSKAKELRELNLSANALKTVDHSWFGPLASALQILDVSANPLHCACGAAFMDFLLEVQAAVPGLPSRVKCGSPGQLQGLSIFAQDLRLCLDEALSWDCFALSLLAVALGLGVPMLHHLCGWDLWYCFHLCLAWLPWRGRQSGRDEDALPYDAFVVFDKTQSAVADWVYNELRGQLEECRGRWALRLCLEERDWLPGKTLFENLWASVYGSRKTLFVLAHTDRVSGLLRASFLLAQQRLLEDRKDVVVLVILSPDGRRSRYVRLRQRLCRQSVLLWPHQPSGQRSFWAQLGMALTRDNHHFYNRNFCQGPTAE
# Method: HEK-Blue™-cells (Invivogen) overexpressing human TLR7, TLR8 or TLR9 receptors were used for screening inhibitors of these receptors using an inducible SEAP (secreted embryonic alkaline phosphatase) reporter gene under the control of the IFN-β minimal promoter fused to five NF-κB and AP-1-binding sites. Briefly, cells are seeded into Greiner 384 well plates (15000 cells per well for TLR7, 20,000 for TLR8 and 25,000 for TLR9) and then treated with test compounds in DMSO to yield a final dose response concentration range of 0.05 nM-50 μM. After a 30 minute compound pre-treatment at room temperature, the cells are then stimulated with a TLR7 ligand (gardiquimod at a final concentration of 7.5 μM), TLR8 ligand (R848 at a final concentration of 15.9 μM) or TLR9 ligand (ODN2006 at a final concentration of 5 nM) to activate NF-κB and AP-1 which induce the production of SEAP. After a 22 hour incubation at 37° C., 500 CO2, SEAP levels are determined with the addition of HEK-Blue™ Detection reagent (Invivogen), a cell culture medium that allows for detection of SEAP, according to manufacturer's specifications.
# [4] = read-out: TLR8 IC50; HEK-Blue cells overexpressing human TLR8, R848 15.9 μM stimulation, SEAP reporter
# [5] = read-out: TLR9 IC50; HEK-Blue cells overexpressing human TLR9, ODN2006 5 nM stimulation, SEAP reporter
# [6] = read-out: TLR8 IC50; HEK-Blue cells overexpressing human TLR8; R848 15.9 μM stimulation; SEAP reporter
# [7] = read-out: TLR9 IC50; HEK-Blue cells overexpressing human TLR9; ODN2006 5 nM stimulation; SEAP reporter
# human TLR7, sequence (Q9NYK1 27-1049): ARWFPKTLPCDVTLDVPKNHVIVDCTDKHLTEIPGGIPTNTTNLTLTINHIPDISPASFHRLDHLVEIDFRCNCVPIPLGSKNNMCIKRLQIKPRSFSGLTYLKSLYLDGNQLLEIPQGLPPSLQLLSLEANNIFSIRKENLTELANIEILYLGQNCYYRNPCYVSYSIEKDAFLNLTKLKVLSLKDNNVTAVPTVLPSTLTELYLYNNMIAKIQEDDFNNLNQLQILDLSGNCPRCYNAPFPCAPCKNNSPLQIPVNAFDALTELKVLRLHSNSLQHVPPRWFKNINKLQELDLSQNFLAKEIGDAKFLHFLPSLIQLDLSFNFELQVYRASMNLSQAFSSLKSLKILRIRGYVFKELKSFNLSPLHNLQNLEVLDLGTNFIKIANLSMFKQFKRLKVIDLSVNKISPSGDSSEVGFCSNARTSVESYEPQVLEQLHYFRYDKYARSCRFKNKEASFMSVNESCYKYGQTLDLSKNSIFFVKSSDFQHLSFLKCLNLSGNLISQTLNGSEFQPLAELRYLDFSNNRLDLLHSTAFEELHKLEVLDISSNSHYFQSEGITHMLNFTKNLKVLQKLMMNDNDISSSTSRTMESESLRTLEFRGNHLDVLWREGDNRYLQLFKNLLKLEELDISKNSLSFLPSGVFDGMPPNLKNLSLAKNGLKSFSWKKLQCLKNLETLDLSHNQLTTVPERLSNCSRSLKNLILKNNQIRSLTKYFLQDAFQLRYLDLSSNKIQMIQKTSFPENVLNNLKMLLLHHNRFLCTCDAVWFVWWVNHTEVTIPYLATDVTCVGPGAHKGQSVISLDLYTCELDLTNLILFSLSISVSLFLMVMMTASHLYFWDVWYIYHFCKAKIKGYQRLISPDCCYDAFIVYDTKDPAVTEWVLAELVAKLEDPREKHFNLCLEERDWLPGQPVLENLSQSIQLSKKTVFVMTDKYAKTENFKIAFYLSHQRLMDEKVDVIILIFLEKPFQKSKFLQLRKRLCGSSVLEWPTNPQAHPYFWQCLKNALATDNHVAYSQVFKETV
Compound,IC50 [1],"IC50 [2, 4]","IC50 [3, 5]","IC50 [2, 6]","IC50 [3, 7]",IC50 [2],IC50 [3]
Cc1c(-c2[nH]c3cnc(N4CC5(C4)CN(C(C)C)C5)c(F)c3c2C(C)C)cn2ncnc2c1C [Example 403],25 nM,1.7 nM,9260 nM,–,–,–,–
COc1cc(-c2[nH]c3cnc(C4CCC(NCC(C)(C)C)CC4)cc3c2C(C)C)cn2ncnc12 (stereo not drawn) [Example 310],13 nM,32 nM,640 nM,–,–,–,–
COc1cc(-c2[nH]c3cnc(C4CCC(NC5COC5)C4)cc3c2C(C)C)cn2ncnc12 (stereo not drawn) [Example 274],42 nM,35 nM,648 nM,–,–,–,–
COc1cc(-c2[nH]c3cnc(N4CCC(NC5CCOCC5)CC4)cc3c2C(C)C)cn2ncnc12 [Example 321],2.8 nM,0.64 nM,1010 nM,–,–,–,–
COc1cc(-c2[nH]c3cnc(N4CCC(NC56CC(C5)C6)CC4)c(C)c3c2C(C)C)cn2ncnc12 [Example 56],1.8 nM,1.5 nM,1010 nM,–,–,–,–
Cc1c(-c2[nH]c3cnc(N4CCN(CC(C)(C)O)CC4)c(F)c3c2C(C)C)cn2ncnc2c1C [Example 426],30 nM,0.54 nM,> 50000 nM,–,–,–,–
Cc1c(-c2[nH]c3cnc(N4CCC(NC5CCOCC5)CC4)c(F)c3c2C(C)C)cn2ncnc2c1C [Example 264],0.69 nM,0.16 nM,1640 nM,–,–,–,–
Cc1c(-c2[nH]c3cnc(C4CCC(N5CCC5)CC4)cc3c2C(C)C)cn2ncnc2c1C (stereo not drawn) [Example 335],4.3 nM,42 nM,669 nM,–,–,–,–
CCN(C)C1CCN(c2ncc3[nH]c(-c4cn5ncnc5c(C)c4C)c(C(C)C)c3c2C)CC1 [Example 55],1.3 nM,1.3 nM,769 nM,–,–,–,–
COc1cc(-c2[nH]c3cnc(C4CCC(N5CC6(COC6)C5)CC4)c(C)c3c2C(C)C)cn2ncnc12 (stereo not drawn) [Example 245],6.3 nM,47 nM,257 nM,–,–,–,–
Cc1cc(-c2[nH]c3cnc(C4CCC(N5CC6(COC6)C5)CC4)c(F)c3c2C(C)C)cn2ncnc12 (stereo not drawn) [Example 133],0.52 nM,1.2 nM,1360 nM,–,–,–,–
CCN(C)C1CCC(c2ncc3[nH]c(-c4cn5ncnc5c(C)c4C)c(C(C)C)c3c2C)CC1 (stereo not drawn) [Example 143],33 nM,33 nM,683 nM,–,–,–,–
Cc1c(-c2[nH]c3cnc(C4CCC(NC5CCOCC5)CC4)c(C)c3c2C(C)C)cn2ncnc2c1C (stereo not drawn) [Example 119],8.1 nM,11 nM,558 nM,–,–,–,–
COc1cc(-c2[nH]c3cnc(N4CCNC[C@H]4C)c(F)c3c2C(C)C)cn2ncnc12 [compound 354],1.6 nM,9.9 nM,3430 nM,–,–,–,–
Cc1cc(-c2[nH]c3cnc(C4CCC(NCC(C)(C)C)CC4)c(F)c3c2C(C)C)cn2ncnc12 (stereo not drawn) [Example 260],1.4 nM,1.7 nM,837 nM,–,–,–,–
CNC(=O)CN1CCN(c2ncc3[nH]c(-c4cn5ncnc5c(C)c4C)c(C(C)C)c3c2F)[C@H](C)C1 [Example 465],8.5 nM,–,–,3.1 nM,47900 nM,–,–
CNC(=O)CN1CCC(c2ncc3[nH]c(-c4cc(C)c5ncnn5c4)c(C(C)C)c3c2F)CC1 [Example 181],1.5 nM,5 nM,6550 nM,–,–,–,–

Compound,IC50 [1],"IC50 [2, 4]","IC50 [3, 5]","IC50 [2, 6]","IC50 [3, 7]",IC50 [2],IC50 [3]
COc1cc(-c2[nH]c3cnc(N4CCN(C5CCN(C(C)C)CC5)CC4)c(F)c3c2C(C)C)cn2ncnc12 [Example 388],2.7 nM,0.81 nM,1890 nM,–,–,–,–
CCN(C)C1CCC(c2ncc3[nH]c(-c4cc(C)c5ncnn5c4)c(C(C)C)c3c2F)CC1 (stereo not drawn) [Example 163],0.39 nM,0.87 nM,1320 nM,–,–,–,–
COc1cc(-c2[nH]c3cnc(C4CCN(C(C)C)CC4)c(C)c3c2C(C)C)cn2ncnc12 [Example 33],1.4 nM,6.9 nM,134 nM,–,–,–,–
COc1cc(-c2[nH]c3cnc(C4CCC(NCC(C)(C)OC)C4)cc3c2C(C)C)cn2ncnc12 (stereo not drawn) [Example 211],41 nM,44 nM,2250 nM,–,–,–,–
CNC(=O)CN(C)C1CCC(c2ncc3[nH]c(-c4cc(OC)c5ncnn5c4)c(C(C)C)c3c2F)CC1 (stereo not drawn) [Example 131],5 nM,7.9 nM,11400 nM,–,–,–,–
COc1cc(-c2[nH]c3cnc(C4CCN(C5COC5)CC4)c(F)c3c2C(C)C)cn2ncnc12 [Example 38],2.8 nM,12 nM,13100 nM,–,–,–,–
COc1cc(-c2[nH]c3cnc(C4CCN(C5COC5)CC4)c(C)c3c2C(C)C)cn2ncnc12 [Example 16],4.7 nM,26 nM,1290 nM,–,–,–,–
COc1cc(-c2[nH]c3cnc(N4CCN(CC#N)CC4)c(F)c3c2C(C)C)cn2ncnc12 [Example 365],0.42 nM,0.51 nM,1490 nM,–,–,–,–
COc1cc(-c2[nH]c3cnc(N4CCC(N5CCC5)CC4)c(F)c3c2C(C)C)cn2ncnc12 [Example 253],0.97 nM,0.77 nM,2860 nM,–,–,–,–
COc1cc(-c2[nH]c3cnc(N4CCC(N5CC6(COC6)C5)CC4)c(C)c3c2C(C)C)cn2ncnc12 [Example 139],1.1 nM,1 nM,1030 nM,–,–,–,–
COc1cc(-c2[nH]c3cnc(N4CCC(NC(C)C(C)C)CC4)cc3c2C(C)C)cn2ncnc12 (stereo not drawn) [Example 313],2.9 nM,0.27 nM,2420 nM,–,–,–,–
Cc1c(-c2[nH]c3cnc(C4CCC(NCC5(C)COC5)CC4)c(F)c3c2C(C)C)cn2ncnc2c1C (stereo not drawn) [Example 171],0.43 nM,0.12 nM,1960 nM,–,–,–,–
Cc1c(-c2[nH]c3cnc(N4CCN(C(=O)CN(C)C)CC4)c(F)c3c2C(C)C)cn2ncnc2c1C [Example 422],3.1 nM,2 nM,6820 nM,–,–,–,–
Cc1c(-c2[nH]c3cnc(C4CCC(N5CCC5)CC4)c(F)c3c2C(C)C)cn2ncnc2c1C (stereo not drawn) [Example 165],0.4 nM,0.62 nM,905 nM,–,–,–,–
COc1cc(-c2[nH]c3cnc(N4CCC(NC(C)C)CC4)c(F)c3c2C(C)C)cn2ncnc12 [Example 157],0.8 nM,0.51 nM,4180 nM,–,–,–,–
Cc1c(N2CCC(NC3COC3)CC2)ncc2[nH]c(-c3cc(C)c4ncnn4c3)c(C(C)C)c12 [Example 140],0.53 nM,1.4 nM,3050 nM,–,–,–,–
COc1cc(-c2[nH]c3cnc(N4CCN(CC(=O)N(C)C)CC4)c(Cl)c3c2C(C)C)cn2ncnc12 [Example 305],2.5 nM,1.4 nM,2830 nM,–,–,–,–

# The next lines start with the values.
IC50 [1],"IC50 [2, 4]","IC50 [3, 5]","IC50 [2, 6]","IC50 [3, 7]",IC50 [2],IC50 [3],Compound
11 nM,5.4 nM,345 nM,–,–,–,–,Cc1c(-c2[nH]c3cnc(C4CCC(NCC(C)(C)C)CC4)cc3c2C(C)C)cn2ncnc2c1C (stereo not drawn) [Example 351]
1.4 nM,2.4 nM,15800 nM,–,–,–,–,COc1cc(-c2[nH]c3cnc(C4CCC(N(CC#N)C5COC5)CC4)c(F)c3c2C(C)C)cn2ncnc12 (stereo not drawn) [Example 115]
13 nM,17 nM,> 50000 nM,–,–,–,–,Cc1c(-c2[nH]c3cnc(N4CCN(S(C)(=O)=O)CC4)c(F)c3c2C(C)C)cn2ncnc2c1C [Example 425]
34 nM,32 nM,548 nM,–,–,–,–,Cc1c(-c2[nH]c3cnc(C4CCC(NCC(C)(C)O)CC4)c(C)c3c2C(C)C)cn2ncnc2c1C (stereo not drawn) [Example 92]
0.36 nM,0.33 nM,1730 nM,–,–,–,–,COc1cc(-c2[nH]c3cnc(N4CCC(NCC(C)(C)C)CC4)c(C)c3c2C(C)C)cn2ncnc12 [Example 169]
0.41 nM,0.18 nM,3340 nM,–,–,–,–,Cc1c(-c2[nH]c3cnc(N4CCC(NC(C)C)CC4)c(F)c3c2C(C)C)cn2ncnc2c1C [Example 166]
2.6 nM,3.4 nM,147 nM,–,–,–,–,Cc1c(-c2[nH]c3cnc(C4CCN(CC(N)=O)CC4)cc3c2C(C)C)cn2ncnc2c1C [Example 23]
0.65 nM,1.5 nM,1110 nM,–,–,–,–,Cc1c(N2CCC(N3CCC3)CC2)ncc2[nH]c(-c3cc(C)c4ncnn4c3)c(C(C)C)c12 [Example 279]
20 nM,16 nM,30700 nM,–,–,–,–,COc1cc(-c2[nH]c3cnc(N4CCC(N(C)CC(F)F)CC4)c(F)c3c2C(C)C)cn2ncnc12 [Example 189]
0.72 nM,0.57 nM,510 nM,–,–,–,–,Cc1c(-c2[nH]c3cnc(N4CCC(NC(C)C)CC4)c(C)c3c2C(C)C)cn2ncnc2c1C [Example 113]
3.9 nM,4 nM,777 nM,–,–,–,–,Cc1c(-c2[nH]c3cnc(C4CCC(NCC(C)(C)C)CC4)cc3c2C(C)C)cn2ncnc2c1C (stereo not drawn) [Example 337]
14 nM,–,–,12 nM,4650 nM,–,–,COCCN1CCC(c2ncc3[nH]c(-c4cc(C)nc(C)c4)c(C(C)C)c3c2F)CC1 [Example 216]
0.61 nM,–,–,–,–,1.4 nM,664 nM,"COc1cc(-c2[nH]c3cnc(N4CCNCC4)c(Cl)c3c2C(C)C)cn2ncnc12 [Example 6, 6-(4-chloro-3-isopropyl-5-(piperazin-1-yl)-1H-pyrrolo[2,3-c]pyridin-2-yl)-8-methoxy-[1,2,4]triazolo[1,5-a]pyridine]"
19 nM,48 nM,208 nM,–,–,–,–,Cc1c(-c2[nH]c3cnc(C4CCN(C(=O)CN(C)C)CC4)cc3c2C(C)C)cn2ncnc2c1C [Example 36]
26 nM,5.2 nM,> 50000 nM,–,–,–,–,Cc1c(-c2[nH]c3cnc(N4CCN(CCS(C)(=O)=O)CC4)c(C)c3c2C(C)C)cn2ncnc2c1C [Example 415]
2.7 nM,5.9 nM,759 nM,–,–,–,–,Cc1c(-c2[nH]c3cnc(C4CCC(NC5COC5)CC4)c(C)c3c2C(C)C)cn2ncnc2c1C (stereo not drawn) [Example 121]
